Experimental data: patent US9403829B2, “Pharmaceutical compositions of 7-(6-(2-hydroxypropan-2-yl)pyridin-3-yl)-1-((trans)-4-methoxycyclohexyl)-3,4-dihydropyrazino [2,3-b]pyrazin-2(1H)-one, a solid form thereof and methods of their use” (Signal Pharmaceuticals, LLC, priority 2011, dated 2016)

Experiments:
[1] = Phase 1 crossover pharmacokinetic study of tablet and capsule formulations, single oral dose; format: in vivo, human
Procedure: Certain formulations provided herein were evaluated in a Phase 1, open-label, randomized, crossover study.
On Day 1 of Period 1, following an overnight fast of at least 8 hours, subjects were randomized to one of the following 3 sequences to receive Treatment A, B or C (Table 30).
In Treatment A, one 20-mg reference Compound A API-in-capsule was administered orally after at least 8 hour fast with 240 mL of non-carbonated, room temperature water. In Treatment B, one 20-mg tablet of Compound A (Tablet Formulation XIII) was administered under fasted conditions. In Treatment C, four 5-mg tablets of Compound A (Tablet Formulation XIV) were administered under fasted conditions. The 20-mg tablet and four 5-mg tablets were administered orally after at least 8 hour fast with 240 mL of non-carbonated, room temperature water.
For each period, serial blood samples were collected before dosing (zero hour) and at 0.5, 1, 1.5, 2, 2.5, 3, 4, 6, 8, 12, 24, 48, 72, and 96 hours after dosing. Plasma concentrations of Compound A were determined for determining PK parameters, such as […], AUC0-∞, Cmax, Tmax, t1/2, CL/F, and Vz/F for Compound A. Plasma PK parameters were calculated using non compartmental methods. Analyses of variance (ANOVA) were performed on the natural log-transformed AUC0-t, AUC0-∞, and Cmax for Compound A. The geometric mean ratios (test/reference) and their 90% confidence intervals were also calculated. For Tmax, non parametric analysis was used to produce median differences.

[2] = Phase 1 food effect study (Part 2), single 20-mg oral dose of Compound A tablet, fed vs fasted; format: in vivo, human; conditions: for CL/F / Tmax / AUC(0-inf) / Cmax / half-life / AUC(0-t) / Vd/F: single 20-mg oral dose of Compound A tablet; for CL/F / AUC(0-inf) / Cmax / half-life / AUC(0-t) / Vd/F: geometric mean; for Tmax / AUC(0-inf) / Cmax / half-life / AUC(0-t) / Vd/F: male, human, plasma, po, 20 mg; for Tmax: median, read-out: Tmax; for AUC(0-t): read-out: AUC0-24; for Vd/F: read-out: Vz/F
Procedure: The primary objectives of this study are: to characterize the biotransformation and excretion of Compound A following a single 20 mg oral dose of Compound A capsule containing a microtracer of [^14C]-Compound A solution in healthy male subjects (Part 1) and to evaluate the effect of a high-fat meal on the pharmacokinetics (PK) of Compound A following a single oral 20-mg dose of Compound A tablet (Part 2).
Part 2 design: Part 2 will be a 2-period crossover study; in Period 1, subjects (n=12) will be randomized to receive either an oral 20 mg dose of Compound A tablet (Treatment B) under fed (n=6) or fasted (n=6) conditions. In Period 2, subjects will receive Treatment B under converse conditions based on treatment assignment in Period 1. After screening, subjects (n=12) eligible for participation in the study will return to the study center on Day −1 for baseline assessments. Subjects who continue to be qualified for participation in the study will be randomized and enrolled in the study on the morning of Day 1. Subjects (n=6) will be enrolled and randomized to receive Treatment B under fed or fasted conditions on the morning of Day 1 after fasting for at least 8 hours. Fed subjects will be served a standard high fat meal breakfast, or its equivalent, that must be consumed within 30 minutes from serving. Dosing must occur 30 minutes (+5 minutes) after serving a subject breakfast. All subjects (fed and fasted) will fast (not to consume any food) until 4 hours post dose. Water will be allowed during the fasting period. Subjects will be domiciled at the study center from Day −1 until the morning of Day 5 of each period. Subjects will be discharged from the study center on the morning of Day 5 upon satisfactory safety review and completion of study-related procedures. Safety and tolerability data will be monitored and collected following each dosing period. Periods 1 and 2 will be separated by a washout period of at least 7 days (no more than 10 days) from prior dose to the next dose. In certain instances, a longer washout may be acceptable if previously agreed to.
Serial blood samples (10 mL) will be collected at predose (0 hour) and at 0.5, 1, 2, 3, 6, 12, 24, 48, 72 and 96 hours post dose for the determination of plasma concentrations of Compound A and the O-desmethyl metabolite of Compound A. Safety will be monitored throughout the study; safety evaluations will include AE reporting, physical examinations, vital sign measurements, ECG, and clinical laboratory safety tests. Concomitant medications will be assessed and recorded throughout the study as well. In addition, during the subjects' stay-in-the clinic (i.e., confinement period), fasting plasma glucose levels will be monitored as part of the clinical laboratory safety tests. For Parts 1 and 2, all subjects will return to the clinic within 7 to days after the last dose for follow up safety assessments. In the event that a subject discontinues prematurely from the study, every reasonable effort should be made (and documented) to ensure that all procedures and evaluations scheduled for the follow-up visit are performed at the time of discontinuation or a follow-up visit should be scheduled within 7 to days from the discontinuation day.
Part 2 dosing: In Part 2, subjects will fast overnight for at least 8 hours prior to Compound A administration. On the morning of Day 1, each subject will receive a 20-mg tablet of Compound A orally. Subjects randomized to receive Compound A under fed conditions will be a served a standard high fat meal (breakfast).
The standard high fat meal or its equivalent must be consumed within minutes of serving. Dosing must occur 30 minutes (+5 minutes) after serving the meal. The tablet will be administered with approximately 240 mL of non-carbonated, room temperature water. After dosing, subjects will continue to fast until 4 hours after dosing.

[3] = Gravimetric vapour sorption (DVS) hygroscopicity; format: physicochemical; conditions: for water uptake (mass gain): between 0 and 80% relative humidity, DVS, 25° C.
Procedure: Sorption isotherms were obtained using a SMS DVS Intrinsic moisture sorption analyser, controlled by DVS Intrinsic Control software v1.0.0.30. The sample temperature was maintained at 25° C. by the instrument controls. The humidity was controlled by mixing streams of dry and wet nitrogen, with a total flow rate of 200 mL/min. The relative humidity was measured by a calibrated Rotronic probe (dynamic range of 1.0-100% RH), located near the sample. The weight change, (mass relaxation) of the sample as a function of % RH was constantly monitored by the microbalance (accuracy±0.005 mg). Typically 5-20 mg of sample was placed in a tared mesh stainless steel basket under ambient conditions. The sample was loaded and unloaded at 40% RH and 25° C. (typical room conditions). The standard isotherm was performed at 25° C. at 10% RH intervals over a 0-90% RH range. Data analysis was undertaken in Microsoft Excel using DVS Analysis Suite v6.0.0.7.
Hygroscopicity of Form A was determined by moisture adsorption and desorption.

[4] = fed vs fasted, healthy adult males, 20 mg Compound A

SMILES: CO[C@H]1CC[C@H](N2C(=O)CNc3ncc(-c4ccc(C(C)(C)O)nc4)nc32)CC1 [Compound A, 7-(6-(2-hydroxypropan-2-yl)pyridin-3-yl)-1-((trans)-4-methoxycyclohexyl)-3,4-dihydropyrazino[2,3-b]pyrazin-2(1H)-one]
- CL/F ([1]; Treatment A: one 20-mg Compound A API-in-capsule, oral, fasted, n = 18, geometric mean): 20.3 L/h
- half-life ([1]; male, human, plasma, Treatment A: one 20-mg Compound A API-in-capsule, oral, fasted, n = 18, geometric mean): 5.7 h
- Vd/F ([1]; male, human, plasma, Treatment A: one 20-mg Compound A API-in-capsule, oral, fasted, n = 18, geometric mean, read-out: Vz/F): 167 L
- Tmax ([1]; male, human, Treatment A: one 20-mg Compound A API-in-capsule, oral, fasted, healthy adult males, n = 18, plasma, median): 1.5 h
- Cmax ([1]; male, human, Treatment A: one 20-mg Compound A API-in-capsule, oral, fasted, n = 18, plasma, geometric mean): 190 ng/mL
- AUC(0-t) ([1]; male, human, Treatment A: one 20-mg Compound A API-in-capsule, oral, fasted, n = 18, plasma, geometric mean, read-out: AUC0-24): 934 ng·h/mL
- AUC(0-inf) ([1]; male, human, Treatment A: one 20-mg Compound A API-in-capsule, oral, fasted, n = 18, plasma, geometric mean, read-out: AUC0-∞): 985 ng·h/mL
- pharmacokinetics, tablet formulations vs API in capsule ([1]; single dose 20 mg, healthy adult male subjects): comparable
- CL/F ([2]; Fasted (n = 11)): 19.9 L/h
- CL/F ([2]; Fed (n = 11, high fat meal)): 16.7 L/h
- decrease in Cmax with a high fat meal [2, 4]: ~17%
- increase in overall exposure (AUCinf) with a high fat meal [2, 4]: ~20%
- Tmax ([2]; Fasted (n = 11), healthy adult males): 1 h
- AUC(0-inf) ([2]; Fasted (n = 11)): 1000 ng·h/mL
- Cmax ([2]; Fasted (n = 11)): 182 ng/mL
- half-life ([2]; Fasted (n = 11)): 5.3 h
- AUC(0-t) ([2]; Fasted (n = 11)): 955 ng·h/mL
- Vd/F ([2]; Fasted (n = 11)): 151 L
- AUC(0-inf) ([2]; Fed (n = 11, high fat meal)): 1200 ng·h/mL
- Cmax ([2]; Fed (n = 11, high fat meal)): 156 ng/mL
- half-life ([2]; Fed (n = 11, high fat meal)): 5.2 h
- AUC(0-t) ([2]; Fed (n = 11, high fat meal)): 1130 ng·h/mL
- Vd/F ([2]; Fed (n = 11, high fat meal)): 125 L
- Tmax ([2]; Fed (n = 11, high fat meal)): 3 h

SMILES: CO[C@H]1CC[C@H](N2C(=O)CNc3ncc(-c4ccc(C(C)(C)O)nc4)nc32)CC1 [Form A, 7-(6-(2-hydroxypropan-2-yl)pyridin-3-yl)-1-((trans)-4-methoxycyclohexyl)-3,4-dihydropyrazino[2,3-b]pyrazin-2(1H)-one]
- hygroscopicity ([3]; DVS moisture adsorption and desorption): not hygroscopic
- XRPD diffractogram after full adsorption/desorption cycle ([3]; after DVS cycle): unchanged from the initial Form A
- water uptake (mass gain) [3]: < 0.1 % w/w
- water uptake (mass gain) ([3]; listed as Form A of Compound A): less than 0.1 % w/w
- weight gain ([3]; increase in humidity from about 0% to about 50% relative humidity at about 25° C.): about 0.1 % w/w
- weight gain ([3]; increase in humidity from about 0% to about 95% relative humidity at about 25° C.): about 0.3 % w/w
- mass gain ([3]; increase in humidity from about 80% to about 90% relative humidity): about 0.5 % w/w
